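A five-concentration, 48-hour dose response in 96-well plates underlies each endpoint, interpolated linearly between surrounding concentrations. At the GI50, growth is halved. TGI marks complete inhibition of growth.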
How the values were obtained:
Assay in all cases: inhibition of tumour cell growth, NCI panel, 48 h
DU-145 prostate = tested on: DU-145 prostate
SF-295 CNS = tested on: SF-295 CNS
OVCAR-3 ovarian = tested on: OVCAR-3 ovarian
MOLT-4 leukemia = tested on: MOLT-4 leukemia
A549 NSCLC = tested on: A549 NSCLC
HS 578T breast = tested on: HS 578T breast
PC-3 prostate = tested on: PC-3 prostate
HT29 colon = tested on: HT29 colon
IGROV1 ovarian = tested on: IGROV1 ovarian
RXF 393 renal = tested on: RXF 393 renal
A498 renal = tested on: A498 renal
OVCAR-4 ovarian = tested on: OVCAR-4 ovarian
HOP-62 NSCLC = tested on: HOP-62 NSCLC
U251 CNS = tested on: U251 CNS
SN12C renal = tested on: SN12C renal
HCT-116 colon = tested on: HCT-116 colon
MDA-MB-435 = tested on: MDA-MB-435
M14 melanoma = tested on: M14 melanoma
SF-268 CNS = tested on: SF-268 CNS
MALME-3M melanoma = tested on: MALME-3M melanoma
SK-MEL-5 melanoma = tested on: SK-MEL-5 melanoma
SR leukemia = tested on: SR leukemia
HCT-15 colon = tested on: HCT-15 colon
SK-OV-3 ovarian = tested on: SK-OV-3 ovarian
K-562 leukemia = tested on: K-562 leukemia
NCI/ADR-RES ovarian = tested on: NCI/ADR-RES ovarian
SNB-19 CNS = tested on: SNB-19 CNS
SK-MEL-2 melanoma = tested on: SK-MEL-2 melanoma
RPMI-8226 leukemia = tested on: RPMI-8226 leukemia
CCRF-CEM leukemia = tested on: CCRF-CEM leukemia
HCC-2998 colon = tested on: HCC-2998 colon
SF-539 CNS = tested on: SF-539 CNS
T-47D breast = tested on: T-47D breast
KM12 colon = tested on: KM12 colon
TK-10 renal = tested on: TK-10 renal
SW-620 colon = tested on: SW-620 colon
OVCAR-8 ovarian = tested on: OVCAR-8 ovarian
SK-MEL-28 melanoma = tested on: SK-MEL-28 melanoma
OVCAR-5 ovarian = tested on: OVCAR-5 ovarian
HOP-92 NSCLC = tested on: HOP-92 NSCLC
HL-60(TB) leukemia = tested on: HL-60(TB) leukemia
MDA-MB-231 breast = tested on: MDA-MB-231 breast
LOX IMVI melanoma = tested on: LOX IMVI melanoma
NCI-H460 lung = tested on: NCI-H460 lung
UACC-62 melanoma = tested on: UACC-62 melanoma
COLO 205 colon = tested on: COLO 205 colon
UO-31 renal = tested on: UO-31 renal
MCF7 breast = tested on: MCF7 breast
EKVX NSCLC = tested on: EKVX NSCLC
CAKI-1 renal = tested on: CAKI-1 renal
SNB-75 CNS = tested on: SNB-75 CNS
786-0 renal = tested on: 786-0 renal
UACC-257 melanoma = tested on: UACC-257 melanoma
ACHN renal = tested on: ACHN renal
NCI-H522 lung = tested on: NCI-H522 lung
BT-549 breast = tested on: BT-549 breast

Q: For `CN1CCN(c2nc(-c3csc(-c4ccccc4)n3)cc3ccccc23)CC1`, which GI50 (DU-145 prostate) is on record?
A: 2.7 µM

Q: What about the TGI (DU-145 prostate) of the same molecule?
A: 7.98 µM

Q: And the GI50 (SF-295 CNS)?
A: 4.97 µM

Q: What about the TGI (SF-295 CNS) of the same molecule?
A: 17.6 µM

Q: What about the GI50 (OVCAR-3 ovarian) of the same molecule?
A: 3.04 µM

Q: What about the TGI (OVCAR-3 ovarian) of the same molecule?
A: 11.8 µM

Q: What about the GI50 (MOLT-4 leukemia) of the same molecule?
A: 2.02 µM

Q: What about the TGI (MOLT-4 leukemia) of the same molecule?
A: 4.04 µM

Q: What about the GI50 (A549 NSCLC) of the same molecule?
A: 10.3 µM

Q: And the TGI (A549 NSCLC)?
A: 22.7 µM

Q: What about the GI50 (HS 578T breast) of the same molecule?
A: 4.57 µM

Q: What about the TGI (HS 578T breast) of the same molecule?
A: 27.1 µM

Q: What about the GI50 (PC-3 prostate) of the same molecule?
A: 2.25 µM

Q: And the TGI (PC-3 prostate)?
A: 6.25 µM

Q: And the GI50 (HT29 colon)?
A: 1.75 µM

Q: And the TGI (HT29 colon)?
A: 3.28 µM

Q: And the GI50 (IGROV1 ovarian)?
A: 1.88 µM

Q: And the TGI (IGROV1 ovarian)?
A: 4.55 µM

Q: What about the GI50 (RXF 393 renal) of the same molecule?
A: 1.96 µM

Q: What about the TGI (RXF 393 renal) of the same molecule?
A: 5.22 µM

Q: And the GI50 (A498 renal)?
A: 14.8 µM

Q: And the TGI (A498 renal)?
A: 28.9 µM

Q: What about the GI50 (OVCAR-4 ovarian) of the same molecule?
A: 4.1 µM

Q: And the TGI (OVCAR-4 ovarian)?
A: 19.8 µM

Q: What about the GI50 (HOP-62 NSCLC) of the same molecule?
A: 2.58 µM

Q: And the TGI (HOP-62 NSCLC)?
A: 10.6 µM

Q: What about the GI50 (U251 CNS) of the same molecule?
A: 2.34 µM

Q: What about the TGI (U251 CNS) of the same molecule?
A: 6.22 µM

Q: What about the GI50 (SN12C renal) of the same molecule?
A: 3.45 µM

Q: And the TGI (SN12C renal)?
A: 12.1 µM

Q: What about the GI50 (HCT-116 colon) of the same molecule?
A: 1.61 µM

Q: And the TGI (HCT-116 colon)?
A: 2.98 µM

Q: And the GI50 (MDA-MB-435)?
A: 1.78 µM

Q: What about the TGI (MDA-MB-435) of the same molecule?
A: 3.47 µM

Q: What about the GI50 (M14 melanoma) of the same molecule?
A: 1.8 µM

Q: What about the TGI (M14 melanoma) of the same molecule?
A: 3.55 µM

Q: And the GI50 (SF-268 CNS)?
A: 4.67 µM

Q: And the TGI (SF-268 CNS)?
A: 19.4 µM

Q: What about the GI50 (MALME-3M melanoma) of the same molecule?
A: 2 µM

Q: What about the TGI (MALME-3M melanoma) of the same molecule?
A: 4.23 µM

Q: And the GI50 (SK-MEL-5 melanoma)?
A: 3.26 µM

Q: And the TGI (SK-MEL-5 melanoma)?
A: 12.1 µM

Q: And the GI50 (SR leukemia)?
A: 1.58 µM

Q: And the TGI (SR leukemia)?
A: 3.97 µM

Q: And the GI50 (HCT-15 colon)?
A: 1.85 µM

Q: And the TGI (HCT-15 colon)?
A: 3.66 µM

Q: And the GI50 (SK-OV-3 ovarian)?
A: 12.3 µM

Q: What about the TGI (SK-OV-3 ovarian) of the same molecule?
A: 28.2 µM

Q: What about the GI50 (K-562 leukemia) of the same molecule?
A: 1.84 µM

Q: What about the TGI (K-562 leukemia) of the same molecule?
A: 3.66 µM

Q: What about the GI50 (NCI/ADR-RES ovarian) of the same molecule?
A: 1.93 µM

Q: What about the TGI (NCI/ADR-RES ovarian) of the same molecule?
A: 4.25 µM

Q: What about the GI50 (SNB-19 CNS) of the same molecule?
A: 5.52 µM

Q: What about the TGI (SNB-19 CNS) of the same molecule?
A: 21.3 µM

Q: And the GI50 (SK-MEL-2 melanoma)?
A: 14.1 µM

Q: And the TGI (SK-MEL-2 melanoma)?
A: 29.2 µM

Q: What about the GI50 (RPMI-8226 leukemia) of the same molecule?
A: 2.09 µM

Q: And the TGI (RPMI-8226 leukemia)?
A: 5.37 µM

Q: And the GI50 (CCRF-CEM leukemia)?
A: 1.96 µM

Q: What about the TGI (CCRF-CEM leukemia) of the same molecule?
A: 4.34 µM

Q: What about the GI50 (HCC-2998 colon) of the same molecule?
A: 1.66 µM

Q: What about the TGI (HCC-2998 colon) of the same molecule?
A: 3.08 µM

Q: And the GI50 (SF-539 CNS)?
A: 1.79 µM

Q: What about the TGI (SF-539 CNS) of the same molecule?
A: 3.45 µM

Q: And the GI50 (T-47D breast)?
A: 2.07 µM

Q: What about the TGI (T-47D breast) of the same molecule?
A: 5.53 µM

Q: And the GI50 (KM12 colon)?
A: 1.95 µM

Q: And the TGI (KM12 colon)?
A: 3.99 µM

Q: What about the GI50 (TK-10 renal) of the same molecule?
A: 14.6 µM

Q: What about the TGI (TK-10 renal) of the same molecule?
A: 28.9 µM

Q: What about the GI50 (SW-620 colon) of the same molecule?
A: 1.63 µM

Q: What about the TGI (SW-620 colon) of the same molecule?
A: 3.12 µM

Q: And the GI50 (OVCAR-8 ovarian)?
A: 1.79 µM

Q: What about the TGI (OVCAR-8 ovarian) of the same molecule?
A: 3.79 µM

Q: And the GI50 (SK-MEL-28 melanoma)?
A: 1.74 µM

Q: And the TGI (SK-MEL-28 melanoma)?
A: 3.28 µM

Q: What about the GI50 (OVCAR-5 ovarian) of the same molecule?
A: 3.23 µM

Q: And the TGI (OVCAR-5 ovarian)?
A: 12.8 µM

Q: What about the GI50 (HOP-92 NSCLC) of the same molecule?
A: 1.88 µM

Q: And the TGI (HOP-92 NSCLC)?
A: 7.63 µM

Q: What about the GI50 (HL-60(TB) leukemia) of the same molecule?
A: 1.84 µM

Q: And the TGI (HL-60(TB) leukemia)?
A: 3.91 µM

Q: What about the GI50 (MDA-MB-231 breast) of the same molecule?
A: 1.94 µM

Q: And the TGI (MDA-MB-231 breast)?
A: 4.38 µM

Q: And the GI50 (LOX IMVI melanoma)?
A: 1.66 µM

Q: And the TGI (LOX IMVI melanoma)?
A: 3.09 µM

Q: And the GI50 (NCI-H460 lung)?
A: 1.73 µM

Q: And the TGI (NCI-H460 lung)?
A: 3.27 µM

Q: And the GI50 (UACC-62 melanoma)?
A: 1.93 µM

Q: And the TGI (UACC-62 melanoma)?
A: 3.88 µM

Q: What about the GI50 (COLO 205 colon) of the same molecule?
A: 1.68 µM

Q: What about the TGI (COLO 205 colon) of the same molecule?
A: 3.19 µM

Q: And the GI50 (UO-31 renal)?
A: 2.19 µM

Q: And the TGI (UO-31 renal)?
A: 8.18 µM

Q: And the GI50 (MCF7 breast)?
A: 1.65 µM

Q: What about the TGI (MCF7 breast) of the same molecule?
A: 3.46 µM

Q: And the GI50 (EKVX NSCLC)?
A: 3.36 µM

Q: What about the TGI (EKVX NSCLC) of the same molecule?
A: 13 µM

Q: And the GI50 (CAKI-1 renal)?
A: 1.61 µM

Q: What about the TGI (CAKI-1 renal) of the same molecule?
A: 3.52 µM

Q: And the GI50 (SNB-75 CNS)?
A: 5.97 µM

Q: What about the TGI (SNB-75 CNS) of the same molecule?
A: 20.8 µM

Q: And the GI50 (786-0 renal)?
A: 1.68 µM

Q: And the TGI (786-0 renal)?
A: 3.34 µM

Q: What about the GI50 (UACC-257 melanoma) of the same molecule?
A: 1.89 µM

Q: What about the TGI (UACC-257 melanoma) of the same molecule?
A: 4.19 µM

Q: And the GI50 (ACHN renal)?
A: 2.1 µM

Q: And the TGI (ACHN renal)?
A: 4.77 µM

Q: What about the GI50 (NCI-H522 lung) of the same molecule?
A: 1.93 µM

Q: And the TGI (NCI-H522 lung)?
A: 4.44 µM

Q: What about the GI50 (BT-549 breast) of the same molecule?
A: 13 µM

Q: What about the TGI (BT-549 breast) of the same molecule?
A: 36.4 µM
